The text below walks through data of paper PMC3089467 (Nucleic Acids Research, 2011).

For the assay, the target named is T1, HhaI DNA cytosine-5 methyltransferase (M.HhaI) (Haemophilus parahaemolyticus, UniProt P05102).
T1 sequence (P05102 1-327): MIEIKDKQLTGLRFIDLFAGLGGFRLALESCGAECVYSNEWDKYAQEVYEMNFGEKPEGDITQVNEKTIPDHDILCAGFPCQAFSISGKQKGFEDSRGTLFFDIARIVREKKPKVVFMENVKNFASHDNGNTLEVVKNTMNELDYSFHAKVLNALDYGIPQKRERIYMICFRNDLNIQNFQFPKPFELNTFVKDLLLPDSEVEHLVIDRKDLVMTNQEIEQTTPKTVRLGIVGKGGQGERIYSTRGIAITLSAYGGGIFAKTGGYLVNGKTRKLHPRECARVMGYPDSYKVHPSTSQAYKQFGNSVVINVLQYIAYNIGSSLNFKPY
Kind of assay: stopped-flow absorbance, ternary complex with DNA. The assay is classed as binding. The conditions noted are these: 100 µM AdoHcy; cognate GCGC/GMGC duplex; pH 7.4, 25 °C.

Turning to `Nc1ncnc2c1ncn2[C@@H]1O[C@H](CSCC[C@H](N)C(=O)O)[C@@H](O)[C@H]1O` [AdoHcy], the “stopped-flow absorbance, ternary complex with DNA” value is “The remaining signal is regained upon addition of AdoHcy to the preformed M.HhaI–DNA complex”.
